How the values were obtained:
[1] = biological target: T1, Recombinant full-length human IDO1 (Homo sapiens, UniProt P14902); assay: IDO1 enzymatic assay (NFK quantified by LCMS); format: biochemical; conditions: 2 nM enzyme, 5 μM L-tryptophan, pH6.5, 30 minutes pre-incubation at RT; mean values when measured multiple times; read-out: hIDO activity (IC50 in nM)
T1 construct: Recombinant full-length human IDO1 with a N-terminal hexahistidine tag; hexahistidine (His6) (N); made in house; host or cells: E. coli
Protocol: 1) Testing Compounds for IDO Inhibitory Activity in an IDO1 Enzymatic Assay:
Recombinant full-length human IDO1 with a N-terminal hexahistidine tag expressed in E. coli and purified to homogeneity is incubated at a final concentration of 2 nM in assay buffer consisting of 37.5 mM phosphate buffer at pH6.5 supplemented with 10 mM ascorbic acid, 0.45 μM methylene blue, 50U/ml catalase, 0.01% BSA, and 0.01% Tween 20 (protocol modified from Seegers et al, JBS 2014). Example compounds are serially diluted in DMSO, further diluted in phosphate buffer, and added to the enzyme at final concentrations ranging from 10 μM to 0.5 nM. The final DMSO concentration is 0.6%. Following a pre-incubation of 30 minutes at RT, the reaction is started by the addition of L-tryptophan at a final concentration of 5 μM in assay buffer. After 30 minutes of incubation at RT, 3 μL of the 20 μl reaction mixture are transferred to a 384 deep well plate containing 25 μL of deionized water. 100 μl of 200 nM L-Tryptophan-(indole-d5) in cold 100% methanol are added followed by a 10 minutes centrifugation at 3220×g at 4° C. An additional 75 μL of deionized water are then added followed by a 10 minutes centrifugation at 3220×g at 4° C. The product of the reaction N′-Formylkynurenine (NFK) is quantified by LCMS and normalized to the L-Tryptophan-(indole-d5) signal. Samples with 0.6% DMSO (0% effect) and a TDO/IDO inhibitor (100% effect) are used as control samples to set the parameters for the non-linear regression necessary for the determination of the half-maximal inhibitory concentration (IC50) for each compound. For each compound concentration the percentage of activity compared to 0% and 100% effect is calculated as average±STDEV (each concentration measured in duplicate). IC50 values and curves are generated with XLfit software (IDBS) using Dose-Response One Site model 203 (four parameter logistic curve model). The calculated IC50 values may fluctuate depending on the daily assay performance. Fluctuations of this kind are known to those skilled in the art. When compounds are measured multiple times, mean values are given.

[2] = biological target: T2, Recombinant human TDO comprising amino acids 19-407 (Homo sapiens, UniProt P48775); assay: TDO2 enzymatic assay (NFK quantified by LCMS); format: biochemical; conditions: 15 nM enzyme, 200 μM L-tryptophan, pH7, 30 minutes pre-incubation at RT; mean values when measured multiple times; read-out: hTDO activity (IC50 in nM)
T2 construct: Recombinant human TDO comprising amino acids 19-407 with a N-terminal hexahistidine tag; hexahistidine (His6) (N); made in house; host or cells: E. coli
Protocol: 2) Testing Compounds for TDO Inhibitory Activity in a TDO2 Enzymatic Assay:
Recombinant human TDO comprising amino acids 19-407 with a N-terminal hexahistidine tag expressed in E. coli and purified to homogeneity is incubated at a final concentration of 15 nM in assay buffer consisting of 75 mM phosphate buffer at pH7 supplemented with 100 μM ascorbic acid, 50U/ml Catalase, 0.01% BSA, and 0.01% Tween 20 (protocol modified from Seegers et al, JBS 2014). Example compounds are serially diluted in DMSO, further diluted in phosphate buffer, and added to the reaction mixture at final concentrations ranging from 10 μM to 0.5 nM. The final DMSO concentration is 0.6%. Following a pre-incubation of 30 minutes at RT, the reaction is started by the addition of L-tryptophan at a final concentration of 200 μM in assay buffer. After 30 minutes of incubation at RT, 3 μL of the reaction mixture are transferred to a 384 deep well plate containing 25 μL of deionized water. 100 μl of 200 nM L-Tryptophan-(indole-d5) in cold 100% methanol are added followed by a 10 minutes centrifugation at 3220×g at 4° C. An additional 75 μL of deionized water are then added followed by a 10 minutes centrifugation at 3220×g at 4° C. The product of the reaction N′-Formylkynurenine (NFK) is quantified by LCMS and normalized to the L-Tryptophan-(indole-d5) signal. Samples with 0.6% DMSO (0% effect) and a TDO/IDO inhibitor (100% effect) are used as control samples to set the parameters for the non-linear regression necessary for the determination of the half-maximal inhibitory concentration (IC50) for each compound. For each compound concentration the percentage of activity compared to 0% and 100% effect is calculated as average±STDEV (each concentration measured in duplicate). IC50 values and curves are generated with XLfit software (IDBS) using Dose-Response One Site model 203 (four parameter logistic curve model). The calculated IC50 values may fluctuate depending on the daily assay performance. Fluctuations of this kind are known to those skilled in the art. When compounds are measured multiple times, mean values are given.

T1 sequence (P14902 whole entry): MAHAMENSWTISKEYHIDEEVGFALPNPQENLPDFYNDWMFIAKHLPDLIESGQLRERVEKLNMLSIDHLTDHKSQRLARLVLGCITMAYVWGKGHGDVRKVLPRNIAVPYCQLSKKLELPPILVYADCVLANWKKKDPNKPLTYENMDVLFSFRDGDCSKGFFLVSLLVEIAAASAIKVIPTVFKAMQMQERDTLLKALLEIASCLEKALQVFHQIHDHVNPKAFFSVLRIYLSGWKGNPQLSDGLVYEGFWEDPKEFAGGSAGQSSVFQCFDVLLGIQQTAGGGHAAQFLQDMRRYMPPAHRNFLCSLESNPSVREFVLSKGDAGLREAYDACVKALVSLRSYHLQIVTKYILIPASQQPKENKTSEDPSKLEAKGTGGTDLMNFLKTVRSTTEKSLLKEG
T2 sequence (P48775 19-406 limits assumed): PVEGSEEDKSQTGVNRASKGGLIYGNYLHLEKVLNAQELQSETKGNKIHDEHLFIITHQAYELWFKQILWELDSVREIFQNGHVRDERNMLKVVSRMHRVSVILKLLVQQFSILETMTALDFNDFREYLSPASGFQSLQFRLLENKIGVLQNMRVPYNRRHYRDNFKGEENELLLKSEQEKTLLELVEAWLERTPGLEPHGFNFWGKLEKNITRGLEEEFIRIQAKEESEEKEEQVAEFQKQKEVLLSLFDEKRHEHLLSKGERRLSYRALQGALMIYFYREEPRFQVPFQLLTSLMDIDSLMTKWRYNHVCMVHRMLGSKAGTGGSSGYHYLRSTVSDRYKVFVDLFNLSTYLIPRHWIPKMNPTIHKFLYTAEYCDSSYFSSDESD

IC50 [1] [nM] | IC50 [2] [nM] | Compound
5.25 | 4440 | Oc1ccc(-n2cc([C@H](O)c3c(C4CC4)sc4cncn34)nn2)cc1Cl [Example 148a, 2-Chloro-4-{4-[(R)-(2-cyclopropyl-imidazo[5,1-b]thiazol-3-yl)-hydroxy-methyl]-[1,2,3]triazol-1-yl}-phenol]
13.1 | > 10200 | CCc1sc2cncn2c1C(O)c1cn(-c2ccc(C(=O)NCCC#N)cc2)nn1 (racemic) [Example 130, rac-N-(2-Cyano-ethyl)-4-{4-[(2-ethyl-imidazo[5,1-b]thiazol-3-yl)-hydroxy-methyl]-[1,2,3]triazol-1-yl}-benzamide]
71.5 | > 10200 | COc1ccc(-n2cc(C(O)c3c(/C=C/C4CC4)sc4cncn34)nn2)cc1 (racemic) [Example 270, rac-[2-((E)-2-Cyclopropyl-vinyl)-imidazo[5,1-b]thiazol-3-yl]-[1-(4-methoxy-phenyl)-1H-[1,2,3]triazol-4-yl]-methanol]
41.8 | 3350 | OC(c1cnn(-c2ccccc2)c1)c1c(C2CC2)sc2cncn12 (racemic) [Example 100, rac-(2-Cyclopropyl-imidazo[5,1-b]thiazol-3-yl)-(1-phenyl-1H-pyrazol-4-yl)-methanol]
37.8 | 8320 | CCCCNC(=O)Nc1ccc(-n2cc(C(O)c3c(C4CC4)sc4cncn34)nn2)cc1 (racemic) [Example 188, rac-1-Butyl-3-(4-{4-[(2-cyclopropyl-imidazo[5,1-b]thiazol-3-yl)-hydroxy-methyl]-[1,2,3]triazol-1-yl}-phenyl)-urea]
4.55 | > 10200 | O[C@@H](c1cn(-c2ccc(OCC3CCOCC3)cc2)nn1)c1c(C2CC2)sc2cncn12 [Example 87a, (R)-(2-Cyclopropyl-imidazo[5,1-b]thiazol-3-yl)-{1-[4-(tetrahydro-pyran-4-ylmethoxy)-phenyl]-1H-[1,2,3]triazol-4-yl}-methanol]
63.6 | > 10200 | CNS(=O)(=O)c1ccc(-n2cc(C(O)c3c(C4CC4)sc4cncn34)nn2)cc1 (racemic) [Example 226, rac-4-{4-[(2-Cyclopropyl-imidazo[5,1-b]thiazol-3-yl)-hydroxy-methyl]-[1,2,3]triazol-1-yl}-N-methyl-benzenesulfonamide]
12.8 | > 10200 | COc1ccc(-n2cc(C(O)c3c([C@@H]4C[C@H]4F)sc4cncn34)nn2)cc1 (relative stereo) [Example 94, [2-(trans-2-Fluoro-cyclopropyl)-imidazo[5,1-b]thiazol-3-yl]-[1-(4-methoxy-phenyl)-1H-[1,2,3]triazol-4-yl]-methanol]
6.66 | > 10200 | COc1cc(F)c(-n2cc(C(O)c3c(C4CC4)sc4cncn34)nn2)cc1Cl (racemic) [Example 300, rac-[1-(5-Chloro-2-fluoro-4-methoxy-phenyl)-1H-[1,2,3]triazol-4-yl]-(2-cyclopropyl-imidazo[5,1-b]thiazol-3-yl)-methanol]
74.8 | > 10200 | COc1ccc(-n2cc(C(O)c3c(-c4ccccc4)sc4cncn34)nn2)cc1 (racemic) [Example 249, rac-[1-(4-Methoxy-phenyl)-1H-[1,2,3]triazol-4-yl]-(2-phenyl-imidazo[5,1-b]thiazol-3-yl)-methanol]
38.8 | > 10200 | COc1ccc(-n2cc(C(O)c3c(C4(C)CC4)sc4cncn34)nn2)cc1 (racemic) [Example 44, rac-[1-(4-Methoxy-phenyl)-1H-[1,2,3]triazol-4-yl]-[2-(1-methyl-cyclopropyl)-imidazo[5,1-b]thiazol-3-yl]-methanol]
550 | 3820 | OC(c1ccc(-c2ccccc2C(F)(F)F)s1)c1c(C2CC2)sc2cncn12 (racemic) [Example 170, rac-(2-Cyclopropyl-imidazo[5,1-b]thiazol-3-yl)-[5-(2-trifluoromethyl-phenyl)-thiophen-2-yl]-methanol]
4.55 | 4570 | O[C@@H](c1cn(-c2ccc3[nH]ccc3c2)nn1)c1c(C2CC2)sc2cncn12 [Example 16a, (R)-(2-Cyclopropyl-imidazo[5,1-b]thiazol-3-yl)-[1-(1H-indol-5-yl)-1H-[1,2,3]triazol-4-yl]-methanol]
4.31 | 5130 | Oc1ccc(-n2cc(C(O)c3c(C4CC4)sc4cncn34)nn2)cc1Cl (racemic) [Example 148, rac-2-Chloro-4-{4-[(2-cyclopropyl-imidazo[5,1-b]thiazol-3-yl)-hydroxy-methyl]-[1,2,3]triazol-1-yl}-phenol]
68.3 | > 10200 | OCC1(c2ccc(-n3cc(C(O)c4c(C5CC5)sc5cncn45)nn3)cc2)CC1 (racemic) [Example 40, rac-(2-Cyclopropyl-imidazo[5,1-b]thiazol-3-yl)-{1-[4-(1-hydroxymethyl-cyclopropyl)-phenyl]-1H-[1,2,3]triazol-4-yl}-methanol]
22.3 | 2150 | CCc1sc2cncn2c1C(O)c1cn(-c2ccc(NC(N)=O)cc2)nn1 (racemic) [Example 131, rac-(4-{4-[(2-Ethyl-imidazo[5,1-b]thiazol-3-yl)-hydroxy-methyl]-[1,2,3]triazol-1-yl}-phenyl)-urea]
8.08 | > 10200 | Oc1ccc(-n2cc(C(O)c3c(C4CC4)sc4cncn34)nn2)cc1 (racemic) [Example 68, rac-4-{4-[(2-Cyclopropyl-imidazo[5,1-b]thiazol-3-yl)-hydroxy-methyl]-[1,2,3]triazol-1-yl}-phenol]
30.6 | > 10200 | O=C(Nc1ccc(-n2cc(C(O)c3c(C4CC4)sc4cncn34)nn2)cc1)N1CCOCC1 (racemic) [Example 104, rac-Morpholine-4-carboxylic acid (4-{4-[(2-cyclopropyl-imidazo[5,1-b]thiazol-3-yl)-hydroxy-methyl]-[1,2,3]triazol-1-yl}-phenyl)-amide]
13.1 | 4290 | CCc1sc2cncn2c1C(O)c1cn(-c2ccc(NC(C)=O)cc2)nn1 (racemic) [Example 110, rac-N-(4-{4-[(2-Ethyl-imidazo[5,1-b]thiazol-3-yl)-hydroxy-methyl]-[1,2,3]triazol-1-yl}-phenyl)-acetamide]
122 | > 10200 | OCCCOc1ccc(-n2cc(C(O)c3c(-c4ccccc4)sc4cncn34)nn2)cc1Cl (racemic) [Example 267, rac-3-(2-Chloro-4-{4-[hydroxy-(2-phenyl-imidazo[5,1-b]thiazol-3-yl)-methyl]-[1,2,3]triazol-1-yl}-phenoxy)-propan-1-ol]
9.6 | > 10200 | Oc1cc(-n2cc(C(O)c3c(C4CC4)sc4cncn34)nn2)ccc1Cl (racemic) [Example 217, rac-2-Chloro-5-{4-[(2-cyclopropyl-imidazo[5,1-b]thiazol-3-yl)-hydroxy-methyl]-[1,2,3]triazol-1-yl}-phenol]

Reference: patent US20200405696A1, “INHIBITORS OF INDOLEAMINE 2,3-DIOXYGENASE AND/OR TRYPTOPHAN 2,3-DIOXYGENASE” (IDORSIA PHARMACEUTICALS LTD, priority 2018, published 2020)
